Source: patent US12486259B2, “FXR agonist having pyrazine structure, and preparation method and use” (JIANGSU TASLY DIYI PHARMACEUTICAL CO., LTD., priority 2020, dated 2025)

Experiments:
[1] = target: T1, GST-labeled recombinant human FXR protein (Homo sapiens, UniProt Q96RI1); assay: Agonistic activity on FXR receptor (GST-FXR / SRC-1 bead assay, protein level); format: biochemical; details: 0.4 nM FXR, 30 nM SRC-1, protein level
T1 construct: purchased Invitroren (so in the source)
T1 sequence (Q96RI1 262-486 limits assumed): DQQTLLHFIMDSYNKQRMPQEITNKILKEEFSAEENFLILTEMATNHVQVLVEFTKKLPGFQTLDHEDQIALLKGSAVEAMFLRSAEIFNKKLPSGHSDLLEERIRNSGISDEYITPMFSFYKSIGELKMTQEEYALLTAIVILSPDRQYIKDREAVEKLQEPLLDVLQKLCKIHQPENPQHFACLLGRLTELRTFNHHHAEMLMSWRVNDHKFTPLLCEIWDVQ
T1 sequence (Q15788 676-700 partner limits assumed): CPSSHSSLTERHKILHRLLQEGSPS
Protocol: Experimental procedures: FXR (GST-labeled recombinant human FXR protein, manufacturer: Invitroren, Item number: PV4835) and SRC-1 (steroid receptor co-activator-1) are thawed on ice. Three solutions of ABC are prepared by a buffer solution, solution A, 0.4 n M FXR and 30 nM SRC-1; solution B, 10 ug/ml Acceptor Beads; solution C, 10 ug/ml Donor Beads. Solution A is added to the plate at 15 uL per well. It is incubated at room temperature for 1 hour. Solution B is added to the plate at 7.5 uL per well. It is incubated at room temperature for 1 hour. Solution C is added to the plate at 7.5 uL per well. It is incubated at room temperature for 1 hour. It is read from the microplate reader Envision. The data are curve fitted by using Prism 5.0 to calculate the EC50.

FXR = target: T2, FXR (Homo sapiens, UniProt Q96RI1); assay: Intracellular FXR-TR-FRET experiment (pBIND-FXR / pG5Luc dual luciferase); format: cell-based; details: cellular level, 18 hours with compound
T2 construct: expressed in transfected cells
T2 sequence (Q96RI1 1-486): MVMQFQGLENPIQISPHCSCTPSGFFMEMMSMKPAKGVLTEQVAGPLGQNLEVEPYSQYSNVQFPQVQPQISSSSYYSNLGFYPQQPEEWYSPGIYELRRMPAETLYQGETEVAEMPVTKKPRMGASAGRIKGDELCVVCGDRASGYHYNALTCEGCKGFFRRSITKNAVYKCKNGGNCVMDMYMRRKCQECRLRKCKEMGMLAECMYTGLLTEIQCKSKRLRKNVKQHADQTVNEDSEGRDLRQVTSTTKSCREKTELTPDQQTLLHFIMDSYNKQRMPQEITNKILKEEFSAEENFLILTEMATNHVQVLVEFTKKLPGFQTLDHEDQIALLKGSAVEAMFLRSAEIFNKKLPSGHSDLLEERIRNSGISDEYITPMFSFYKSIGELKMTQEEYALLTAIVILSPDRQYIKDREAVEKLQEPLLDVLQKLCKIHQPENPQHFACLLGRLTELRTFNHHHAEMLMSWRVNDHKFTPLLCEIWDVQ
Protocol: • 1. Cell culture: a, trypsinize dishes and seed cells are taken with appropriate density in 10 ml of complete […] at 37° C. b. Cells are incubated for 24 hours in 5% CO2 and humidified. • 2. Cell inoculation and transfection: FuGENE HD transfection reagent is used as a transfection reagent. • a. The transfection mixture is prepared according to the following procedure:
• b. The tube is tapped vigorously to mix the contents. The mixture is incubated at room temperature for 15 minutes. • c. Discs are trypsinized and cell density is determined. • d. The cytolymph is diluted to the desired volume at a density of 500,000 cells/ml (100 ul/well for 96-well plate). • e. The required volume of previously prepared transfection mixture is added to both cytolymph, and then 100 ul/well of cytolymph is dispensed onto the assay plate. • f. The assay plate is incubated under humidified conditions at 37° C., 5% CO2 for 24 hours. • 3. Compound preparation: • a. Compound stocks are prepared with a FXR working concentration of 10 mM and then diluted 3-fold in 100% DMSO. • b. 10 ul compound is added to 90 ul complete medium. • c. 5 ul compound solution is added to each well. • d. The plate is incubated at 37° C., 5% CO2 and humidified for 18 hours. • 4. Dual luciferase assay: the firefly and Renilla luciferase signals are analyzed by Dual Luciferase Reporter Assay System from Promega. Envision is used as a photometer. • 5. Result calculation: data values are normalized by dividing the firefly signal by the Renilla signal. “F/R” means “firefly/Renilla”. This normalization eliminates differences in different cell numbers and transfection efficiencies in each well. The % Activation value is calculated. The % Activation value is calculated by the following formula.
X is the “F/R” value for each concentration point. The minimum value is the average “F/R” value for the no compound control. The maximum value is the average “F/R” value of the reference compound control. • 6.

in vitro = details: human; for efflux ratio: Caco-2; for Papp B→A: Caco-2, Papp B-A; for recovery: Caco-2, Recovery rate A-B
Protocol: The bi-directional transport of target compounds from apical side (AP) to basolateral side (BL) and from BL side to AP side is studied by using human colon adenocarcinoma cell line Caco-2 monolayer model. The transport parameters, apparent permeability coefficient (Papp) and efflux ratio are calculated by quantitative analysis with high performance liquid chromatography (HPLC).

[2] = Caco-2, Papp, A-to-B values (highly permeable substrates)

Structure (SMILES) | EC50 [1] | EC50 (FXR) | efflux ratio (in vitro) | Papp A→B (in vitro; Caco-2, Papp A-B) | Papp A→B (in vitro; Caco-2, Papp A-B, Average) | Papp A→B (in vitro; Caco-2, Papp A-B, Sample-01) | Papp A→B (in vitro; Caco-2, Papp A-B, Sample-02) | Papp B→A (in vitro) | Papp A→B (in vitro; [2]) | recovery (in vitro; Average) | recovery (in vitro; Sample-01) | recovery (in vitro; Sample-02)
Cc1cc(C(=O)O)cc(C2CC(O)(c3cnc(OCc4c(-c5c(Cl)cccc5Cl)noc4C(C)C)cn3)C2)c1 (stereo not drawn) [TM-09, 3-(3-(5-((3-(2,6-dichlorophenyl)-5-isopropylisoxazol-4-yl)methoxy)pyrazine-2-yl)-3-hydroxycyclobutyl)-5-methyl benzoic acid] | 480 nM | 260 nM | 4.22 | 6.91 ×10⁻⁶ cm/s | 8.75 ×10⁻⁶ cm/s | 8.46 ×10⁻⁶ cm/s | 9.05 ×10⁻⁶ cm/s | 29.2 ×10⁻⁶ cm/s | > 2.5 ×10⁻⁶ cm/s | 81.4% | 80.9% | 82%
O=C(O)c1cccc(C2CC(O)(c3cnc(OCc4c(-c5c(Cl)cccc5Cl)noc4C4CC4)cn3)C2)c1 (stereo not drawn) [TM-01, 3-(3-(5-(5-cyclopropyl-3-(2,6-dichlorophenyl)isoxazole-4-ylmethoxy)-2-pyrazine)-1-hydroxycyclobutane) benzoic acid] | 540 nM | 1280 nM | 3.95 | 8.25 ×10⁻⁶ cm/s | 8.17 ×10⁻⁶ cm/s | 6.42 ×10⁻⁶ cm/s | 9.91 ×10⁻⁶ cm/s | 32.6 ×10⁻⁶ cm/s | > 2.5 ×10⁻⁶ cm/s | 71.2% | 63.9% | 78.5%
O=C(O)c1cccc(N2CC(O)(c3cnc(OCc4c(-c5c(Cl)cccc5Cl)noc4C4CC4)cn3)C2)c1 [TM-02, 3-(3-(5-((5-cyclopropyl-3-(2,6-dichlorophenyl)isoxazol-4-yl)methoxy)pyrazine-2-yl)-3-hydroxyazetidin-1-yl) benzoic acid] | 2320 nM | 3140 nM | 3.75 | 8.87 ×10⁻⁶ cm/s | 9.02 ×10⁻⁶ cm/s | 8.57 ×10⁻⁶ cm/s | 9.47 ×10⁻⁶ cm/s | 33.3 ×10⁻⁶ cm/s | > 2.5 ×10⁻⁶ cm/s | 70.8% | 64.9% | 76.8%
CC(C)c1onc(-c2c(Cl)cccc2Cl)c1COc1cnc(C2(O)CC(c3cccc(C(=O)O)c3)C2)cn1 (stereo not drawn) [TM-06, 3-(3-(5-(5-isopropyl-3-(2,6-dichlorophenyl)isoxazole-4-ylmethoxy)-2-pyrazine)-1-hydroxycyclobutane) benzoic acid] | 2410 nM | 1790 nM | 5.12 | 7.54 ×10⁻⁶ cm/s | 7.17 ×10⁻⁶ cm/s | 7.86 ×10⁻⁶ cm/s | 6.48 ×10⁻⁶ cm/s | 38.6 ×10⁻⁶ cm/s | > 2.5 ×10⁻⁶ cm/s | 74.2% | 81% | 67.3%
